# Laboratory results from patent US8389739B1, “Modulators of retinoid-related orphan receptor gamma” (Orphagen Pharmaceuticals, priority 2006, dated 2013).
# “Also recorded” adds a separate entry of the source.
# Legend:
# [1] = test system: IL-17 release and TH-17 cells in lymph node cultures; assay: Lymph node cell cultures from PLP-immunized SJL/J mice, IL-17 ELISA and Th-17 FACS; assay type: cell-based
# Protocol: FIGS. 13A-F. IL-17 levels in lymph node cells from mice immunized with myelin-derived peptides respond to cognate peptide antigens, IL-23 and RORγ ligands. (FIG. 13A) SJL/J mice were immunized by complete Freund's adjuvant (CFA) only or by Proteolipid Protein residues 139-151 (PLP139-151) emulsified in CFA. Lymph nodes were cultured for 3 days in with or without 40 μg/ml PLP in the presence or absence of OR-885. Culture media were analyzed by ELISA for IL-17. (FIGS. 13B-C) Lymph node cells from PLP-immunized SJL/J mice were cultured as before with the addition of 10 ng/ml IL-23 and 3 μM compounds. At the end of 1 day or 3 days in culture, Th-17 (CD4^+CD8^−IL17^+) cell frequency was measured by FACS (FIG. 13B) and compared to IL-17 levels in culture media (FIG. 13C). (FIGS. 13D-F) Lymph node cells from MOG35-55 immunized C57BL/6 mice were cultured for 3 days with 30 μg/ml MOG and/or 10 ng/ml IL-23. RORγ ligands were not added (FIG. 13D), or added at the beginning of the culture at a single concentration (FIG. 13E, 1 μM) or in multiple doses (FIG. 13F).
# FIG. 14. Inhibition of IL-17 release in mouse lymph node cultures by the RORγ antagonist OR-885 can be reversed by the RORγ agonist OR-12872. The lymph node cells were culture in the presence of 10 ng/mL IL-23 and 40 μg/mL PLP for three days under identical conditions to FIG. 13 and IL-17 in the culture supernatant was measured by ELISA.
# ELISA kits for mouse IL-17 and human IL-17 were from eBioscience (San Diego, Calif.). ELISA assays were performed following the manufacturer's protocol. Certain samples were diluted 20-fold to avoid maximization of enzymatic signals. For mouse IL-22 ELISA, antibodies and standards were from Antigenix America (Huntington Station, N.Y.) and accessory components were from eBioscience. The IL-22 assay protocol was similar to that of the IL-17 assays. […]
# [2] = test system: IL-17 release from CD4+ naïve murine T cells; assay: IL-17 release into culture medium during TH-17 differentiation (ELISA); assay type: cell-based, mouse; details: 3 μM, in the presence or absence of 3 μM OR-12872, day 4 (FIG. 10)
# Protocol: FIG. 10. IL-17 release into culture medium was measured four days after induction of TH-17 differentiation in CD4^+ naïve murine T cells, following the methods of FIG. 7. Each antagonist (OR-885, OR-1050, OR-13571, and OR-2161) was incubated in the cultures at 3 μM, in the presence or absence of OR-12872, also at 3 μM. On day 4, culture supernatants were saved and IL-17 measured by ELISA.
# Purified CD4^+CD62L^+ T cells were plated in 24-well plates with 2−4×10^5 cells in 700 ul volume of RPMI 1640 media containing 10% heat-inactivated FCS, 100 IU penicillin, 100 μg/ml streptomycin, 1× non-essential amino acids, 1 mM pyruvate, 2 mM glutamine, and 50 μM […] (Veldhoen, Hocking et al. 2006). T cells were stimulated with exogenous cytokines and anti-CD3/anti-CD28 conjugated Dynabeads (Dynal Biotech, Oslo) at a 1:1 ratio of beads to cells. Exogenous cytokines used were: 4 ng/ml TGF-β, 20 ng/ml of IL-6, or 10 ng/ml IL-12. RORγ agonist and antagonist ligands, dissolved in DMSO, were added directly to cell cultures, to a final concentration of 0.01%. Cytokines and RORγ ligands were added immediately after cell plating.
# ELISA kits for mouse IL-17 and human IL-17 were from eBioscience (San Diego, Calif.). ELISA assays were performed following the manufacturer's protocol. Certain samples were diluted 20-fold to avoid maximization of enzymatic signals. […]
# [3] = test system: EAE; assay: EAE model, SJL/J mice immunized with PLP139-151, osmotic pump; assay type: in vivo
# [4] = test system: CIA; assay: Collagen-induced arthritis (CIA) in DBA/1 mice; assay type: in vivo; details: 100 mg/kg/day OR-1050 p.o. in HRC-6; AUC day 24 to 48, p<0.09
# [5] = test system: EAE; assay: EAE model, C57BL/6 mice immunized with MOG35-55; assay type: in vivo; details: for median day of onset of symptoms (clinical score 1 or greater): oral gavage twice a day, corn oil vehicle day 18
# [6] = test system: thymocytes; assay: Thymus weight and thymocyte subpopulations after oral dosing in C57BL/6 mice; assay type: in vivo; details: mouse, in vivo, 100 mg/kg
# Protocol: In addition, the total number and the fraction of the major thymocyte subpopulations including CD4^+CD8^+ (DP), CD4^+CD8^- (SP4^+) and CD4^-CD8^+ (SP8^+) were measured by cell surface staining followed by FACS analysis. […] The volume of cells was adjusted to 8 mls. Debris from the thymus was allowed to settle, and a 200 μl aliquot of cells was incubated with fluorescent antibodies to CD4 and CD8 for 15 minutes at room temperature. […] Before analytical flow cytometry was carried out (FACS Calibur, Becton Dickinson), Caltag counting beads (from Invitrogen) were added to allow absolute quantitation of cell number. Thymus subpopulations were determined after gating for live cells. […] Dexamethasone reproducibly induces rapid apoptosis of DP thymocytes and reduction of thymic mass ([…], Drupt et al. 2000; Zubkova, Mostowski et al. 2005).
smiles,measurement,setting,value
"C[C@@H]1CC[C@@]2(OC1)O[C@H]1C[C@H]3[C@@H]4CC[C@H]5C[C@@H](O)CC[C@]5(C)[C@H]4C[C@@H](O)[C@]3(C)[C@H]1[C@@H]2C [OR-885, 5α,20α, 22α, 25D-SPIROSTAN-3β, 12β-DIOL]",induction of TH-17 cells (as a percentage of total live cells),"[1]; PLP, 10 ng/ml IL-23, 3 μM compounds (FIG. 13B)",block
same,PLP-stimulated release of IL-17,"[1]; lymph node cultures, 40 μg/ml PLP, 3 days",inhibited
"COC(C)CCC(C)C1CCC2C3CC(O)C4CC(O)CCC4(C)C3CCC12C (centres unmarked) [OR-12872, 17-(4-Methoxy-1-methyl-pentyl)-10,13-dimethyl-hexadecahydro-cyclopenta[a]phenanthrene-3,6-diol]",reversal of antagonist suppression of IL-17 release,"[1]; 10 ng/mL IL-23 and 40 μg/mL PLP, three days (FIG. 14)",reverses the suppressive effects of OR-885 on IL-17 release
same,IL-17 release during TH-17 differentiation,[2],reverses the effect of each of the antagonists
"CCN(c1ccc(C(O)(C(F)(F)F)C(F)(F)F)cc1)S(=O)(=O)c1ccc([N+](=O)[O-])cc1 [OR-1050, N-Ethyl-4-nitro-N-[4-(2,2,2-trifluoro-1-hydroxy-1-trifluoromethyl-ethyl)-phenyl]-benzenesulfonamide]","paralytic severity, in words",[3]; FIG. 11D,reduced paralytic severity
same,"day of onset, in words",[3]; FIG. 11E,significantly delayed
same,area under the severity curve (mean±sem),"[3]; estimated 30 mg/kg daily, vehicle 14.5±1.6, p<0.01",5.3±2.7
same,disease course of CIA (hind limb clinical scores),[4],partly suppressed
same,median day of onset of symptoms (clinical score 1 or greater),[5]; 30 mg/kg total daily dose,16 days
same,"onset of EAE, in words",[5]; 100 mg/kg OR-1050 per day versus vehicle,slows the onset of EAE; also recorded: significantly (p<0.05) delayed
same,median day of onset of symptoms (clinical score 1 or greater),"[5]; 100 mg/kg total daily dose, p<0.05",26 days
same,"progress of disease and weight loss, in words","[5]; high dose (50 mg/kg, 2× per day), FIG. 11A, 11B",inhibits progress of the disease and weight loss
same,inflammatory infiltration in the spinal cord,"[5]; high dose, FIG. 11C, p<0.07, Mann-Whitney",reduced
same,Frequency of DP (% of total cells),[6],56.7 ± 3.1%
same,Total cells per spleen (×10^−6) DP,[6],61.5 ×10^−6
same,Total cells per spleen (×10^−6) SP4,[6],8.1 ×10^−6
same,Total cells per spleen (×10^−6) SP8,[6],2.5 ×10^−6
